In patent US5948792A, “Fluorine-containing 1,4-disubstituted piperidine derivatives” (Banyu Pharmaceutical Co., Ltd., priority 1996, dated 1999):

Key:
[1] = biological target: T1, Muscarinic M2 receptor (Homo sapiens, UniProt P08172); assay: Inhibition of binding of [3H]-N-methylscopolamine to muscarinic M2 receptor; conditions: CHO cell membranes expressing cloned human receptor; 0.2 nM [3H]-N-methylscopolamine, pH 7.4, 2 hours, 25° C; read-out: Ki M2 (inhibitory effects on binding to muscarinic M2 receptor)
T1 construct: purchased Receptor Biology, Inc; host or cells: CHO cells (membranes)
T1 sequence (P08172 1-466): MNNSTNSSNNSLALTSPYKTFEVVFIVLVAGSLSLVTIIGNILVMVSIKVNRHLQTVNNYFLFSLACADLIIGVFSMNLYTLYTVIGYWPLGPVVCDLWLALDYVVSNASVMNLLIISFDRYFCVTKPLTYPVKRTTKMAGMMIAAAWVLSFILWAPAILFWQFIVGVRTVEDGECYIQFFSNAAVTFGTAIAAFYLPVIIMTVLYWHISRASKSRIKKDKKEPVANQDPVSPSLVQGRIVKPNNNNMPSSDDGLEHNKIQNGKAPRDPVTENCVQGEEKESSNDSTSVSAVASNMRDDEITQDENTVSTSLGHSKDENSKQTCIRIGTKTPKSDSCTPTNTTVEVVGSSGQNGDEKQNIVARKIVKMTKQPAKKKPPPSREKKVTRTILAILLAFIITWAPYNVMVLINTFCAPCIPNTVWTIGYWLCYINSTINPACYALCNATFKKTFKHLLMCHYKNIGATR
Experimental: Tests on Inhibition of Binding to Muscarinic Receptors
These tests were performed according to a modification of the method of Hargreaves et al. (Br. J. Pharmacol. 107: 494-501, 1992). Membranes from CHO cells expressing cloned human m1-m5 (Receptor Biology, Inc.) were incubated with 0.2 nM [^3 H]-N-methylscopolamine and each a compound of the present invention to be tested in 0.5 ml of 50 mM Tris-HCl-10 mM MgCl2 -1 mM EDTA (pH 7.4) for 2 hours at 25° C. Free and membrane-bound [^3 H]-N-methylscopolamine were separated by filtration over glass filters (UniFilter-GF/C; Packard Instruments Co., Inc.) using cell harvester (Filtermate™ 196; Packard Instruments Co., Inc.). Then the filter was washed four times with 1 ml of ice-cold Tris-HCl (pH 7.4) and dried at 50° C. After adding a scintillator (Microscinti 0; Packard Instruments Co., Inc.), the radioactivity was counted by a liquid scintillation counter (TopCount™; Packard Instruments Co., Inc.). Non-specific binding was measured in the presence of 1 μM N-methylscopolamine.

[2] = biological target: T2, M2 receptor (Rattus norvegicus, UniProt P10980); assay: Antagonism to M2 receptor in an isolated rat right atrium (in vitro); format: cell-based; conditions: carbachol-induced decrease in heart rate
T2 construct: the right atrium was isolated; from tissue; host or cells: isolated right atrium of male SD strain rat
T2 sequence (P10980 1-466): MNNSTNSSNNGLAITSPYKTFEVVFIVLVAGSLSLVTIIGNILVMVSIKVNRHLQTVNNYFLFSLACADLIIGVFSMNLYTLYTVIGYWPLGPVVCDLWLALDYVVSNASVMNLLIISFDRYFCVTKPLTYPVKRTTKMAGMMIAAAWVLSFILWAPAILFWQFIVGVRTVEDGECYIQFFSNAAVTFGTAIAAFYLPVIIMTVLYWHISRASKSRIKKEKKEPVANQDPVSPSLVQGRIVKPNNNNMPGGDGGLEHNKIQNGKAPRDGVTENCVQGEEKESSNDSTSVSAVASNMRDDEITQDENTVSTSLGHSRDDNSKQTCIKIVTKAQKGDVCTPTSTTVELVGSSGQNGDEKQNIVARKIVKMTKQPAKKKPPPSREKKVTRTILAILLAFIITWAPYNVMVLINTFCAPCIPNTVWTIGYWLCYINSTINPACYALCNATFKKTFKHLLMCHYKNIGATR
Experimental: Tests for Antagonism to Muscarinic Receptors (in vitro)
1) Tests for Antagonism to M2 receptor in an Isolated Rat Right Atrium
These tests were performed according to a conventional method. A male SD strain rat (weighing 300-500 g) was killed by exsanguination, and the right atrium was isolated. This preparation was isometrically suspended in organ bath filled with 20 ml of Krebs-Henseleit solution (gassed with 95% O2 -5% CO2 and kept at 32° C.) with an initial tension of 0.5 g. The heart rate was recorded with a heart rate counter. After the preparation was equilibrated for 30 minutes, carbachol (10^-9 to 10^-6 M) was cumulatively administered in three-fold increasing doses. Thus, a decrease in heart rate was measured to obtain a dose-response curve for the control experiment. After the preparation was washed with fresh solution to restore the heart rate, a test compound was administered thereto. Ten minutes later, carbachol was cumulatively administered again. Responses to carbachol were expressed as percentages based on the heart rate before administration of carbachol as 100%. The antagonistic potency (KB value) of the test compound was determined from the degree of shift of the dose-response curve obtained by treatment with individual test compound of the present invention.

[3] = biological target: T3, Muscarinic M3 Receptor (Rattus norvegicus, UniProt P08483); assay: Bronchodilation in rats (p.o.), inhibition of acetylcholine-induced increase in airway resistance; format: in vivo; conditions: po, 1 h, acetylcholine 50 μg/kg i.v. 60 minutes after test compound, read-out: Inhibition of Airway Contraction ED50 po
T3 construct: male rats of the Sprague-Dawley strain; from tissue; host or cells: airways of living male Sprague-Dawley rats (in vivo)
Experimental: (§1) Tests for Antagonism Against Muscarinic M3 Receptor (in vivo)
1-B) Tests for Bronchodilation in Rats (p.o.)
Eight- to eleven-weeks-old male rats of Sprague-Dawley strain weighing 380-420 g were orally administered with a test compound. The rats were treated in the identical manner as in the i.v. test, starting 30 minutes after the administration, and their airway resistance values were measured. The acetylcholine-(50 μg/kg, i.v.) induced airway resistance increase were measured 60 minutes after the administration of test compounds. In controls, isotonic sodium chloride solution was used in place of the test compounds and otherwise identical procedures were repeated, the ratio between the two airway resistance values whereby being set to be 100%.

[4] = test system: Muscarinic M3 Receptor; assay: Bronchodilation in dogs (p.o.), methacholine provocation test; format: in vivo, dog; conditions: beagle dogs, 1 mg/kg p.o., 4 hours after administration
Experimental: as §1
2) Tests for Bronchodilation in Dogs (p.o.)
Twelve- to twenty-four-months-old male beagle dogs (weighing 10-15 kg) were anesthetized with pentobarbital (30 mg/kg, i.v.) and intubated in their bronchus. Their airway sensitivity to inhaled methacholine were measured at least twice at two-weeks interval, and the dogs showing a reproducible methacholine reaction threshold values^1) ware selected. To those dogs whose methacholine reaction threshold value had been confirmed, the test compounds were orally administered (1 mg/kg). Four hours after the administration, the methacholine provocation test was conducted, and then the methacholine reaction threshold value^2) after administration of the test compound was obtained.
The bronchodilator activity of the test compound was determined following equation: [formula]
The methacholine provocation test was conducted using Astograph TCK-6100H Model (Chest). Methacholine chloride was used as bronchoconstritor, which was diluted with isotonic sodium chloride solution in 10-grade concentration levels starting from 40,000 μg/ml, as 20,000, 10,000, 5,000, 2,500, 1,250, 625, 312.5, 156 and 78 μg/ml. These methacholine aerosols were inhaled to the test animal each for 1 min, starting from the lowest concentration level, and respiration resistance was continuously recorded. The concentration level at which the respiration resistance reached twice the initial value was recorded as the methacholine threshold value.

T3 sequence (P08483 whole entry): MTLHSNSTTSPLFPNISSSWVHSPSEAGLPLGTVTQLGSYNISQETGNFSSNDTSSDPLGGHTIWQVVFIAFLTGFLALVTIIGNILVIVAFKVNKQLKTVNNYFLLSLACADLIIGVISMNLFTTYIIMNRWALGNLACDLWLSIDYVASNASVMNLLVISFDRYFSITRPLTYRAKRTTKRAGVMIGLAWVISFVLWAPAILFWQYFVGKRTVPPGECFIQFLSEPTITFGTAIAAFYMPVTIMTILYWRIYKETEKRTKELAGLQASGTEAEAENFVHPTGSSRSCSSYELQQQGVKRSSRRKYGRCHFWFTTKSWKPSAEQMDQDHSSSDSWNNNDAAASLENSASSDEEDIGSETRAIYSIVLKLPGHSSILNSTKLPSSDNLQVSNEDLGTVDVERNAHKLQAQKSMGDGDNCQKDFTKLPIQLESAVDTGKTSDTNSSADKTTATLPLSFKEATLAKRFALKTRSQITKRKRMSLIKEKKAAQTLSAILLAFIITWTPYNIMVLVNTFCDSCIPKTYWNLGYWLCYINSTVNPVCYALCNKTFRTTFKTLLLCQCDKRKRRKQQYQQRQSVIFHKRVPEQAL

Row | SMILES | Ki [1] | Kb [2] | ED50 [3] | Methacholine Inhalation-inducing Test shift value (after 4 hrs.) [4]
1 | O=C(NC1CCN(Cc2ccsc2)CC1)[C@](O)(c1ccccc1)[C@@H]1CCC(F)(F)C1 [Example 11, (2R)-N-[1-(3-thienylmethyl)piperidin-4-yl]-2-[(1R)-3,3-difluorocyclopentyl]-2-hydroxy-2-phenylacetamide] | 460 nM | 610 nM | 0.22 mg/kg | 21
2 | Cl.Cl.Nc1cccc(CN2CCC(NC(=O)[C@](O)(c3ccccc3)[C@@H]3CCC(F)(F)C3)CC2)n1 [Example 20, (2R)-N-[1-(6-aminopyridin-2-ylmethyl)piperidin-4-yl]-2-[(1R)-3,3-difluorocyclopentyl]-2-hydroxy-2-phenylacetamide dihydrochloride] | 550 nM | 2100 nM | 0.37 mg/kg | > 69
